Measurements: ChEMBL document CHEMBL4177585, “Discovery of berberine based derivatives as anti-influenza agent through blocking of neuraminidase” (Bioorg Med Chem, 2017)
≈ marks a conversion by molar mass, not a printed value. Calls of active or inactive are those of the source. The calls are words filed in the database; no cut-off is given here.

What was measured:
Influenza A virus [1] = assay: Antiviral activity against Influenza A virus (A/Puerto Rico/8/1934(H1N1)) infected in MDCK cells assessed as reduction in virus-induced cytopathogenicity incubated for 48 hrs by SRB assay; type: functional, organism-based
[2] = target: Neuraminidase (Influenza A virus (A/Puerto Rico/8/1934(H1N1)), UniProt P03468); assay: Inhibition of neuraminidase in influenza A virus (A/Puerto Rico/8/1934(H1N1)) pre-incubated for 30 mins before NA-Star substrate addition for 30 mins by luminescence based assay
Chain of Neuraminidase (Influenza A virus (A/Puerto Rico/8/1934(H1N1)), UniProt P03468) (P03468 whole entry): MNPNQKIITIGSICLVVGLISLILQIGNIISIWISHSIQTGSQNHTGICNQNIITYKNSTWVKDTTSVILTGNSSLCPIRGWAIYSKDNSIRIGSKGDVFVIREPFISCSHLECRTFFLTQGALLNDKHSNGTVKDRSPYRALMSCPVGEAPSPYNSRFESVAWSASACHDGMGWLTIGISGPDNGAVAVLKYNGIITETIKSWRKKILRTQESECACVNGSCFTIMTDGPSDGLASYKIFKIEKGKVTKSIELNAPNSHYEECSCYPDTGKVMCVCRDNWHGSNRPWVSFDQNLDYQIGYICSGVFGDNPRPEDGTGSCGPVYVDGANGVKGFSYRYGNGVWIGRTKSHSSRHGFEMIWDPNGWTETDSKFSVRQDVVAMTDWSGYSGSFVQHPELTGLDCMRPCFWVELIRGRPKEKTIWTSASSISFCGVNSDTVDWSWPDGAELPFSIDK

[3] = Cytotoxicity against MDCK cells incubated for 48 hrs assessed as reduction in cell viability by SRB assay; type: cell-based, Canis lupus familiaris; conditions: dog
Influenza B virus [4] = assay: Antiviral activity against Influenza B virus (B/Lee/40) infected in MDCK cells assessed as reduction in virus-induced cytopathogenicity incubated for 48 hrs by SRB assay; type: functional, organism-based; conditions: B/Lee/1940, MDCK
Influenza B virus [5] = assay: Antiviral activity against Influenza B virus (B/Maryland/1/59) infected in MDCK cells assessed as reduction in virus-induced cytopathogenicity incubated for 48 hrs by SRB assay; type: functional, organism-based
Influenza A virus [6] = assay: Antiviral activity against Influenza A virus (A/Puerto Rico/8/1934(H1N1)) infected in MDCK cells assessed as reduction in virus-induced cytopathogenicity at 1 ug/ml pre-incubated for 1 hr with virus before virus infection of cells and measured after 48 hrs by SRB assay; type: functional, organism-based
Influenza A virus [7] = assay: Antiviral activity against Influenza A virus (A/Puerto Rico/8/1934(H1N1)) infected in MDCK cells assessed as reduction in virus-induced cytopathogenicity at 1 ug/ml treated before virus infection and measured after 48 hrs by SRB assay relative to untreated control; type: functional
Influenza A virus [8] = assay: Antiviral activity against Influenza A virus (A/Victoria/3/1975(H3N2)) infected in MDCK cells assessed as reduction in virus-induced cytopathogenicity incubated for 48 hrs by SRB assay; type: functional, organism-based
Influenza A virus [9] = assay: Antiviral activity against Influenza A virus (A/Puerto Rico/8/1934(H1N1)) infected in MDCK cells assessed as reduction in virus-induced cytopathogenicity treated 12 hrs after virus infection and measured after 48 hrs by SRB assay; type: functional, organism-based
Influenza A virus [10] = assay: Antiviral activity against Influenza A virus (A/Puerto Rico/8/1934(H1N1)) infected in MDCK cells assessed as reduction in virus-induced cytopathogenicity treated 2 hrs before virus infection and measured after 48 hrs by SRB assay; type: functional, organism-based
[11] = target: Neuraminidase (Influenza A virus (A/Puerto Rico/8/1934(H1N1))) (UniProt P03468); assay: Inhibition of neuraminidase in influenza A virus (A/Puerto Rico/8/1934(H1N1)) assessed as remaining enzyme activity at 10 ug/ml pre-incubated for 30 mins before NA-Star substrate addition for 30 mins by luminescence based assay
Chain of Neuraminidase (Influenza A virus (A/Puerto Rico/8/1934(H1N1))) (P03468 whole entry): as above

Influenza A virus [12] = assay: Antiviral activity against Influenza A virus (A/Puerto Rico/8/1934(H1N1)) infected in MDCK cells assessed as reduction in virus-induced cytopathogenicity treated 4 hrs after virus infection and measured after 48 hrs by SRB assay; type: functional, organism-based
Influenza A virus [13] = assay: Antiviral activity against Influenza A virus (A/Puerto Rico/8/1934(H1N1)) infected in MDCK cells assessed as reduction in virus-induced cytopathogenicity treated immediately after virus infection and measured after 48 hrs by SRB assay; type: functional, organism-based
Influenza A virus [14] = assay: Antiviral activity against Influenza A virus (A/Puerto Rico/8/1934(H1N1)) infected in MDCK cells assessed as reduction in virus-induced cytopathogenicity treated 2 hrs after virus infection and measured after 48 hrs by SRB assay; type: functional, organism-based
Influenza A virus [15] = assay: Antiviral activity against Influenza A virus (A/Puerto Rico/8/1934(H1N1)) infected in MDCK cells assessed as reduction in virus-induced cytopathogenicity treated 6 hrs before virus infection and measured after 48 hrs by SRB assay; type: functional, organism-based
Influenza A virus [16] = assay: Antiviral activity against Influenza A virus (A/Puerto Rico/8/1934(H1N1)) infected in MDCK cells assessed as reduction in virus-induced cytopathogenicity treated 1 hr after virus infection and measured after 48 hrs by SRB assay; type: functional, organism-based
Influenza A virus [17] = assay: Antiviral activity against Influenza A virus (A/Puerto Rico/8/1934(H1N1)) infected in MDCK cells assessed as reduction in virus-induced cytopathogenicity treated 24 hrs after virus infection and measured after 48 hrs by SRB assay; type: functional, organism-based
Influenza A virus [18] = assay: Antiviral activity against Influenza A virus (A/Puerto Rico/8/1934(H1N1)) infected in MDCK cells assessed as reduction in virus-induced cytopathogenicity treated 7 hrs after virus infection and measured after 48 hrs by SRB assay; type: functional, organism-based
[19] = target: Neuraminidase (Influenza A virus (A/Puerto Rico/8/1934(H1N1))) (UniProt P03468); assay: Inhibition of neuraminidase in influenza A virus (A/Puerto Rico/8/1934(H1N1)) assessed as remaining enzyme activity at 0.1 ug/ml pre-incubated for 30 mins before NA-Star substrate addition for 30 mins by luminescence based assay
[20] = target: Neuraminidase (Influenza A virus (A/Puerto Rico/8/1934(H1N1))) (UniProt P03468); assay: Inhibition of neuraminidase in influenza A virus (A/Puerto Rico/8/1934(H1N1)) assessed as remaining enzyme activity at 1 ug/ml pre-incubated for 30 mins before NA-Star substrate addition for 30 mins by luminescence based assay
Influenza A virus [21] = assay: Antiviral activity against Influenza A virus (A/Puerto Rico/8/1934(H1N1)) infected in MDCK cells assessed as reduction in virus-induced cytopathogenicity treated 1 hr before virus infection and measured after 48 hrs by SRB assay; type: functional, organism-based

| Compound | IC50 (Influenza A virus [1]) [µg/mL] | Ki [2] [nM] | CC50 at 48 h [3] [µg/mL] | also measured |
| --- | --- | --- | --- | --- |
| COc1cc(CN2CCN(c3ccccc3[N+](=O)[O-])CC2)c2cc3[n+](cc2c1O)CCc1cc2c(cc1-3)OCO2.[Cl-] | > 50 | 1340 | 230 |  |
| COc1cc(CN2CCN(c3ccc(Cl)cc3)CC2)c2cc3[n+](cc2c1O)CCc1cc2c(cc1-3)OCO2.[Cl-] | 45.3 | 960 | 480 |  |
| COc1cc(CN2CCN(C(c3ccccc3)c3ccccc3)CC2)c2cc3[n+](cc2c1O)CCc1cc2c(cc1-3)OCO2.[Cl-] | 3.14 | 490 |  |  |
| COc1cc(CN2CCN(c3cccc(Cl)c3)CC2)c2cc3[n+](cc2c1O)CCc1cc2c(cc1-3)OCO2.[Cl-] | 29.6 | 250 |  |  |
| COc1cc(CN2CCN(c3ccccc3F)CC2)c2cc3[n+](cc2c1O)CCc1cc2c(cc1-3)OCO2.[Cl-] | 9.16 | 5200 | 68.8 |  |
| COc1cc(CN2CCN(c3ccc4ccccc4c3)CC2)c2cc3[n+](cc2c1O)CCc1cc2c(cc1-3)OCO2.[Cl-] | 20 | 240 | 150 |  |
| COc1cc(CN2CCN(c3ccccc3Cl)CC2)c2cc3[n+](cc2c1O)CCc1cc2c(cc1-3)OCO2.[Cl-] | 1.63 | 2650 | 401 | IC50 (Influenza B virus [4]): 6.33 µg/mL; IC50 (Influenza B virus [5]): 4.17 µg/mL; Activity (Influenza A virus [6]): Active; inhibition at 1 µg/mL (Influenza A virus [7]): 22.1%; IC50 (Influenza A virus [8]): 2.98 µg/mL |
| COc1cc(CN2CCN(c3ccc(C(F)(F)F)cc3)CC2)c2cc3[n+](cc2c1O)CCc1cc2c(cc1-3)OCO2.[Cl-] | 10 | 1590 |  |  |
| COc1ccc2cc3[n+](cc2c1OC)CCc1cc2c(cc1-3)OCO2 [BERBERINE] | 31.3 | 14300 | 70.2 | Activity (Influenza A virus [6]): Active; inhibition at 1 µg/mL (Influenza A virus [7]): 12.1% |
| COc1cc(Cn2c3ccccc3c3ccccc32)c2cc3[n+](cc2c1O)CCc1cc2c(cc1-3)OCO2.[Cl-] | 9.79 | 490 | 62.6 |  |
| CCOC(=O)C1=C[C@@H](OC(CC)CC)[C@H](NC(C)=O)[C@@H](N)C1 [OSELTAMIVIR] | 3.19 (≈ 10.2 µM) |  |  | IC50 (Influenza A virus [9]): 84.3 µg/mL (≈ 270 µM); IC50 (Influenza A virus [10]): 71.5 µg/mL (≈ 229 µM); IC50 (Influenza B virus [4]): 41.9 µg/mL (≈ 134 µM); Activity [11]: 22.6%; IC50 (Influenza B virus [5]): 33.2 µg/mL (≈ 106 µM); Activity (Influenza A virus [6]): Active; IC50 (Influenza A virus [12]): 7.39 µg/mL (≈ 23.7 µM); IC50 (Influenza A virus [13]): 4.12 µg/mL (≈ 13.2 µM); IC50 (Influenza A virus [14]): 6.05 µg/mL (≈ 19.4 µM); inhibition at 1 µg/mL (Influenza A virus [7]): 25.7%; IC50 (Influenza A virus [15]): > 100 µg/mL; IC50 (Influenza A virus [16]): 6.13 µg/mL (≈ 19.6 µM); IC50 (Influenza A virus [17]): > 100 µg/mL; IC50 (Influenza A virus [18]): 12.8 µg/mL (≈ 40.8 µM); Activity [19]: 41.9%; Activity [20]: 32.9%; IC50 (Influenza A virus [21]): 69.8 µg/mL (≈ 223 µM); IC50 (Influenza A virus [8]): 12.1 µg/mL (≈ 38.9 µM) |
| COc1cc(CN2CCN(C(=O)c3ccccc3)CC2)c2cc3[n+](cc2c1O)CCc1cc2c(cc1-3)OCO2.[Cl-] | > 50 | 580 | 424 |  |
| COc1cc(CN2CCN(c3ccc(OC(F)(F)F)cc3)CC2)c2cc3[n+](cc2c1O)CCc1cc2c(cc1-3)OCO2.[Cl-] | 8.45 | 490 | 312 |  |
| COc1cc(CN2CCN(c3ccc(C)cc3C)CC2)c2cc3[n+](cc2c1O)CCc1cc2c(cc1-3)OCO2.[Cl-] | 60.1 | 420 | 134 |  |
| COc1ccc(N2CCN(Cc3cc(OC)c(O)c4c[n+]5c(cc34)-c3cc4c(cc3CC5)OCO4)CC2)c(OC)c1.[Cl-] | 47.8 | 1590 |  |  |
| COc1cc(CN2CCN(c3ccccn3)CC2)c2cc3[n+](cc2c1O)CCc1cc2c(cc1-3)OCO2.[Cl-] | 2.64 | 170 | 185 |  |
| COc1cc(CN2CCN(c3cccc(Cl)c3Cl)CC2)c2cc3[n+](cc2c1O)CCc1cc2c(cc1-3)OCO2.[Cl-] | 8.37 | 350 | 63.2 |  |
| COc1cc(CN2CCN(c3ccc([N+](=O)[O-])cc3)CC2)c2cc3[n+](cc2c1O)CCc1cc2c(cc1-3)OCO2.[Cl-] | > 50 | 1330 | 1380 |  |
| COc1cc(CN2CCOCC2)c2cc3[n+](cc2c1O)CCc1cc2c(cc1-3)OCO2.[Cl-] | 44.3 | 480 | 126 |  |
| COc1cc(CN2CCN(c3ccc(C)cc3)CC2)c2cc3[n+](cc2c1O)CCc1cc2c(cc1-3)OCO2.[Cl-] | 1.48 | 290 | 68.5 | IC50 (Influenza B virus [4]): 6.17 µg/mL; IC50 (Influenza B virus [5]): 5.1 µg/mL; Activity (Influenza A virus [6]): Active; inhibition at 1 µg/mL (Influenza A virus [7]): 25.3%; IC50 (Influenza A virus [8]): 2.13 µg/mL |
| COc1cc(CN2CCCCC2)c2cc3[n+](cc2c1O)CCc1cc2c(cc1-3)OCO2.[Cl-] | > 50 | 680 | 1640 |  |
| COc1cc(CN2CCN(c3ccc(F)cc3F)CC2)c2cc3[n+](cc2c1O)CCc1cc2c(cc1-3)OCO2.[Cl-] | 9.92 | 410 | 73.9 |  |
| COc1cc(CN2CCN(c3ncccn3)CC2)c2cc3[n+](cc2c1O)CCc1cc2c(cc1-3)OCO2.[Cl-] | 2.65 | 70 | 223 |  |
| COc1cc(CN2CCN(c3ccc(F)cc3)CC2)c2cc3[n+](cc2c1O)CCc1cc2c(cc1-3)OCO2.[Cl-] | 0.87 | 480 | 72.6 | IC50 (Influenza A virus [9]): 23.2 µg/mL; IC50 (Influenza A virus [10]): 21.3 µg/mL; IC50 (Influenza B virus [4]): 4.12 µg/mL; Activity [11]: 16.6%; IC50 (Influenza B virus [5]): 3.12 µg/mL; Activity (Influenza A virus [6]): Active; IC50 (Influenza A virus [12]): 1.75 µg/mL; IC50 (Influenza A virus [13]): 0.89 µg/mL; IC50 (Influenza A virus [14]): 1.19 µg/mL; inhibition at 1 µg/mL (Influenza A virus [7]): 48.3%; IC50 (Influenza A virus [15]): 52.4 µg/mL; IC50 (Influenza A virus [16]): 1.22 µg/mL; IC50 (Influenza A virus [17]): > 100 µg/mL; IC50 (Influenza A virus [18]): 9.38 µg/mL; Activity [19]: 43.1%; Activity [20]: 23.4%; IC50 (Influenza A virus [21]): 3.4 µg/mL; IC50 (Influenza A virus [8]): 1.15 µg/mL |
